Source: PMC7382147, “An effective UFLC–MS/MS method used to study pharmacokinetics of major constituents of Fukeqianjin formula in rat plasma” (Chinese Medicine, 2020)
Like-named read-outs stand apart in the source and are kept apart here.

Key:
[1] = Pharmacokinetic study in rat plasma after oral administration of FKQJF extract (UFLC–MS/MS); type: in vivo, Sprague-Dawley (SD) rats; settings: for AUC(0-inf) / AUC(0-t) / Cmax / half-life / MRT last / MRT inf / Tmax: oral FKQJF extract, single dose 3.2 g/kg, mean ± SD; for MRT last: read-out: MRT0→t; for MRT inf: read-out: MRT0→∞; for shape of the plasma concentration–time curve / time of first peak of the concentration–time curve / time of second peak of the concentration–time curve: oral FKQJF extract 3.2 g/kg; for time of first peak of the concentration–time curve / time of second peak of the concentration–time curve: post dose
Protocol: (§1) Aliquots of 100 μL plasma samples were mixed with 10 μL I.S. samples (1 μg/mL, in MeOH), then added with 500 μL ACN, respectively, and vortexed for 5 min, centrifugated at 10,000 rpm for 10 min, the supernatants were transferred into clean vials and dried in a vacuum centrifugal concentrator at 1200 rpm, 37 °C. After that, 100 μL ACN was added and ultrasonic (frequency 40 kHz, power 250 W) extracted for 5 min to dissolve the dry residue, vortexed for 1 min and centrifugated at 10,000 rpm for 5 min, 1 μL of each final supernatant was injected into UFLC–MS/MS for analysis.
An 8050 UFLC–MS/MS system equipped with LC-30A binary pump, a SIL-30AC autosampler, a SPD-M30A PDA detector, a CTO-20AC column oven, and a 8050 triple quadrupole mass spectrometer with an electrospray ionization source (ESI) was applied to detect and quantify FKQJF compounds in plasma samples. Data were acquired and processed with the software LabSolution (Ver. 5.6).
A Kinetex XB-C18 HPLC column (100 × 2.1 mm, 2.6 μm) linked with an equivalent guard column was used for chromatographic separation. The aqueous phase contained 0.2% formic acid was used as mobile phase A, and organic phase ACN as mobile phase B. The gradient elution method using in this program was: 3–5 min, 28–31% B; 5–7 min, 31–34% B; 7–9 min, 34–65% B; 9–10 min, 65–95% B; 10–11.5 min, 95% B. The flow rate of mobile phase, column temperature and autosampler temperature was 0.4 mL/min, 30 °C and 4 °C, respectively. The injection volume of each sample was set as 1 μL. The main MS spectrum parameters were set as follows: the flow rate of drying gas (N2) was 10.0 L/min; the atomized gas was 3.0 L/min and the heating gas flow rate was 10.0 L/min. The main temperatures of interface, desolvation and heat block was 300 °C, 250 °C and 400 °C, respectively. And, the interface and detector voltage were 3 kV and 1.8 kV.
Rats were divided into a blank group and a FKQJF administration group (6 rats for each), and fasted for 24 h. Each rat of the administration group was given FKQJF extract suspension at a single dose of 3.2 g FKQJF/kg body weight through oral administration in parallel. Blood samples (0.25 mL) were gathered from the orbital venous plexus of each rat, with FKQJF group gathered at 14 serial timepoints (6 rats for each) as 0.083 h, 0.16 h, 0.33 h, 0.5 h, 0.75 h, 1.0 h, 1.5 h, 2 h, 3 h, 4 h, 6 h, 8 h, 12 h and 24 h after drug administration. The blood samples were centrifugated at 6000g for 10 min to isolate plasma and stored at − 20 °C for further analysis.
Data were analyzed using the Drug and Statistics (DAS) Software version 2.0 (DAS 2.0, Mathematical Pharmacology Professional Committee of China, Shanghai, China). The non-compartmental mode was applied to obtain the following PK parameters: area under the plasma concentration–time curve from time zero to the time of last quantifiable concentration (AUC0→t) and area under the plasma concentration–time curve to time infinity (AUC0→∞), the elimination half-life (t1/2), mean retention time to last sampling time (MRT0→t) and mean retention time to infinity (MRT0→∞). The maximum plasma concentration (Cmax) and the time to maximum concentration (Tmax) were observed directly from the concentration–time (C–T) curves and measured data. All data are presented as mean ± SD.

[2] = Ordinary stability of QC samples (room temperature for 8 h); type: physicochemical, rat; settings: plasma QC, room temperature 8 h
Protocol: as §1
(§2) Six replicates of low, medium and high concentrations of quality control (QC) samples were used to verify the stabilities under different conditions including: place at room temperature for 8 h, freeze (− 20 °C) and thaw for three times, and store at − 20 °C for 20 days.

[3] = Freeze–thaw stability of QC samples (−20 °C, three times); type: physicochemical, rat; settings: plasma QC, freeze (−20 °C) and thaw three times
Protocol: as §1, §2

[4] = Long-term stability of QC samples (−20 °C for 20 days); type: physicochemical, rat; settings: plasma QC
Protocol: as §1, §2

Row | SMILES | AUC(0-inf) ([1]; Sprague-Dawley) | AUC(0-t) ([1]; Sprague-Dawley) | Cmax ([1]; Sprague-Dawley) | half-life ([1]; Sprague-Dawley) | MRT last ([1]; Sprague-Dawley) | MRT inf ([1]; Sprague-Dawley) | Tmax ([1]; Sprague-Dawley, read-out: Tmax) | shape of the plasma concentration–time curve [1] | Ordinary stability Mean ([2]; spiked 50 ng/mL) | Ordinary stability Mean ([2]; spiked 250 ng/mL) | Ordinary stability Mean ([2]; spiked 500 ng/mL) | Freeze–thaw stability Mean ([3]; spiked 50 ng/mL) | Freeze–thaw stability Mean ([3]; spiked 250 ng/mL) | Freeze–thaw stability Mean ([3]; spiked 500 ng/mL) | Long-term stability Mean ([4]; spiked 50 ng/mL) | Long-term stability Mean ([4]; spiked 250 ng/mL) | Long-term stability Mean ([4]; spiked 500 ng/mL) | Ordinary stability Mean ([2]; spiked 60 ng/mL) | Ordinary stability Mean ([2]; spiked 300 ng/mL) | Ordinary stability Mean ([2]; spiked 600 ng/mL) | further results
1 | COc1ccc(-c2coc3cc(O[C@@H]4O[C@H](CO)[C@@H](O)[C@H](O)[C@H]4O)ccc3c2=O)cc1 [Analyte 10, ononin] | 375 ± 153 ng·h/mL | 370 ± 156 ng·h/mL | 192 ± 32 ng/mL | 1.64 ± 0.52 h | 2.54 ± 1.12 h | 3.13 ± 1.66 h | 1.33 ± 0.58 h | double-peaks | 95.59% | 82.57% | 103.90% | 118.81% | 102.95% | 81.68% | 95.03% | 81.88% | 107.95% | – | – | – | –
2 | COc1cc2c(cc1OC)-c1cc3ccc(OC)c(OC)c3c[n+]1CC2 [Analyte 11, palmatine] | 1640 ± 155 ng·h/mL | 691 ± 93.3 ng·h/mL | 134 ± 31.8 ng/mL | 9.16 ± 2.09 h | 11 ± 0.99 h | 14.2 ± 8.89 h | 1.67 ± 0.29 h | – | – | – | – | – | – | – | – | – | – | – | – | – | Ordinary stability Mean ([2]; spiked 5 ng/mL): 92.36%; Ordinary stability Mean ([2]; spiked 100 ng/mL): 81.64%; Freeze–thaw stability Mean ([3]; spiked 5 ng/mL): 94.51%; Freeze–thaw stability Mean ([3]; spiked 100 ng/mL): 98.74%; Long-term stability Mean ([4]; spiked 5 ng/mL): 87.02%; Long-term stability Mean ([4]; spiked 100 ng/mL): 101.38%; Long-term stability Mean ([4]; spiked 200 ng/mL): 89.65%
3 | COc1ccc2cc3[n+](cc2c1OC)CCc1cc2c(cc1-3)OCO2 [Analyte 13, berberine] | 5630 ± 2430 ng·h/mL | 3800 ± 171 ng·h/mL | 619 ± 84.6 ng/mL | 38.8 ± 53.2 h | 8.04 ± 0.88 h | 39 ± 46.5 h | 8 h | double-peaks | – | – | – | – | – | – | – | – | – | – | – | – | Ordinary stability Mean ([2]; spiked 5 ng/mL): 84.57%; Ordinary stability Mean ([2]; spiked 100 ng/mL): 103.56%; Ordinary stability Mean ([2]; spiked 200 ng/mL): 113.97%; Freeze–thaw stability Mean ([3]; spiked 5 ng/mL): 97.72%; Freeze–thaw stability Mean ([3]; spiked 100 ng/mL): 110.44%; Freeze–thaw stability Mean ([3]; spiked 200 ng/mL): 104.87%; Long-term stability Mean ([4]; spiked 5 ng/mL): 102.75%; Long-term stability Mean ([4]; spiked 100 ng/mL): 81.78%; Long-term stability Mean ([4]; spiked 200 ng/mL): 114.48%

Further lines, with some results ahead:

Row | AUC(0-inf) ([1]; Sprague-Dawley) | AUC(0-t) ([1]; Sprague-Dawley) | Cmax ([1]; Sprague-Dawley) | half-life ([1]; Sprague-Dawley) | MRT last ([1]; Sprague-Dawley) | MRT inf ([1]; Sprague-Dawley) | Tmax ([1]; Sprague-Dawley, read-out: Tmax) | shape of the plasma concentration–time curve [1] | Ordinary stability Mean ([2]; spiked 50 ng/mL) | Ordinary stability Mean ([2]; spiked 250 ng/mL) | Ordinary stability Mean ([2]; spiked 500 ng/mL) | Freeze–thaw stability Mean ([3]; spiked 50 ng/mL) | Freeze–thaw stability Mean ([3]; spiked 250 ng/mL) | Freeze–thaw stability Mean ([3]; spiked 500 ng/mL) | Long-term stability Mean ([4]; spiked 50 ng/mL) | Long-term stability Mean ([4]; spiked 250 ng/mL) | Long-term stability Mean ([4]; spiked 500 ng/mL) | Ordinary stability Mean ([2]; spiked 60 ng/mL) | Ordinary stability Mean ([2]; spiked 300 ng/mL) | Ordinary stability Mean ([2]; spiked 600 ng/mL) | SMILES | further results
4 | 480 ± 71.9 ng·h/mL | 442 ± 59.5 ng·h/mL | 186 ± 19 ng/mL | 1.79 ± 0.2 h | 2.45 ± 0.19 h | 3.1 ± 0.33 h | 1 ± 0.43 h | double-peaks | – | – | – | – | – | – | – | – | – | 115.56% | 107.50% | 85.93% | C=C1CC[C@@H]2[C@](C)(CO)[C@H](O)CC[C@@]2(C)[C@@H]1C/C=C1/C(=O)OC[C@H]1O [Analyte 12, andrographolide] | time of first peak of the concentration–time curve [1]: 0 to 1 h; time of second peak of the concentration–time curve [1]: 1.5 to 3 h; Freeze–thaw stability Mean ([3]; spiked 60 ng/mL): 84.52%; Freeze–thaw stability Mean ([3]; spiked 300 ng/mL): 86.83%; Freeze–thaw stability Mean ([3]; spiked 600 ng/mL): 93.19%; Long-term stability Mean ([4]; spiked 60 ng/mL): 115.89%; Long-term stability Mean ([4]; spiked 300 ng/mL): 94.37%; Long-term stability Mean ([4]; spiked 600 ng/mL): 96.64%
5 | 206 ± 58.7 ng·h/mL | 144 ± 16.5 ng·h/mL | 67.7 ± 27.6 ng/mL | 12.1 ± 9.32 h | 6.67 ± 1.42 h | 17 ± 8.17 h | – | – | 80.39% | 92.68% | 101.11% | 88.34% | 116.86% | 84.71% | 91.66% | 103.10% | 99.51% | – | – | – | O=C1C[C@@H](c2ccc(O)cc2)Oc2cc(O)cc(O)c21 [Analyte 14, naringenin] | Tmax [1]: 2.00 ± 0.00 h
6 | 81.1 ± 19.4 ng·h/mL | 74.3 ± 17.5 ng·h/mL | 47.7 ± 5.92 ng/mL | 1.2 ± 0.74 h | 2.21 ± 0.48 h | 3.05 ± 1.01 h | 1.42 ± 0.63 h | double-peaks | – | – | – | – | – | – | – | – | – | 89.92% | 119.43% | 82.90% | C=C1CC[C@@H]2[C@](C)(CO)[C@H](O)CC[C@@]2(C)[C@@H]1/C=C/C1=CCOC1=O [Analyte 15, 14-deoxy-11,12-didehydro-andrographolide] | time of first peak of the concentration–time curve [1]: 0 to 1 h; time of second peak of the concentration–time curve [1]: 1.5 to 3 h; Freeze–thaw stability Mean ([3]; spiked 60 ng/mL): 114.11%; Freeze–thaw stability Mean ([3]; spiked 300 ng/mL): 105.94%; Freeze–thaw stability Mean ([3]; spiked 600 ng/mL): 118.41%; Long-term stability Mean ([4]; spiked 60 ng/mL): 100.55%; Long-term stability Mean ([4]; spiked 300 ng/mL): 98.43%; Long-term stability Mean ([4]; spiked 600 ng/mL): 88.35%
7 | 251 ± 97.6 ng·h/mL | 177 ± 17.1 ng·h/mL | 31.4 ± 6.94 ng/mL | 12.6 ± 12.7 h | 8.68 ± 1.17 h | 20.1 ± 5.01 h | 2 h | double-peaks | 83.35% | 92.98% | 88.55% | 105.76% | 108.03% | 95.34% | 105.80% | 89.82% | 95.48% | – | – | – | COc1ccccc1-c1cc(=O)c2c(O)cc(OC)c(OC)c2o1 [Analyte 16, panicolin] | –
8 | 179 ± 14.3 ng·h/mL | 161 ± 12.7 ng·h/mL | 19.2 ± 2.48 ng/mL | 5.98 ± 0.4 h | 7.3 ± 0.38 h | 9.82 ± 0.45 h | 3.33 ± 2.31 h | double-peaks | – | – | – | – | – | – | – | – | – | 81.80% | 117.99% | 89.06% | C=C1CC[C@@H]2[C@](C)(CO)CCC[C@@]2(C)[C@@H]1CCC1=CCOC1=O [Analyte 17, andrograpanin] | Freeze–thaw stability Mean ([3]; spiked 60 ng/mL): 82.73%; Freeze–thaw stability Mean ([3]; spiked 300 ng/mL): 86.68%; Freeze–thaw stability Mean ([3]; spiked 600 ng/mL): 115.83%; Long-term stability Mean ([4]; spiked 60 ng/mL): 87.43%; Long-term stability Mean ([4]; spiked 300 ng/mL): 90.66%; Long-term stability Mean ([4]; spiked 600 ng/mL): 117.51%
